For 7 compounds, inhibition results are on record in ChEMBL document CHEMBL3132769, “Fragment growing to retain or alter the selectivity of anchored kinase hinge-binding fragments” (Medchemcomm, 2014).

Assay [1] concerns the target T1, Inhibitor of nuclear factor kappa-B kinase subunit beta (Homo sapiens) (UniProt O14920).
T1 sequence (whole entry): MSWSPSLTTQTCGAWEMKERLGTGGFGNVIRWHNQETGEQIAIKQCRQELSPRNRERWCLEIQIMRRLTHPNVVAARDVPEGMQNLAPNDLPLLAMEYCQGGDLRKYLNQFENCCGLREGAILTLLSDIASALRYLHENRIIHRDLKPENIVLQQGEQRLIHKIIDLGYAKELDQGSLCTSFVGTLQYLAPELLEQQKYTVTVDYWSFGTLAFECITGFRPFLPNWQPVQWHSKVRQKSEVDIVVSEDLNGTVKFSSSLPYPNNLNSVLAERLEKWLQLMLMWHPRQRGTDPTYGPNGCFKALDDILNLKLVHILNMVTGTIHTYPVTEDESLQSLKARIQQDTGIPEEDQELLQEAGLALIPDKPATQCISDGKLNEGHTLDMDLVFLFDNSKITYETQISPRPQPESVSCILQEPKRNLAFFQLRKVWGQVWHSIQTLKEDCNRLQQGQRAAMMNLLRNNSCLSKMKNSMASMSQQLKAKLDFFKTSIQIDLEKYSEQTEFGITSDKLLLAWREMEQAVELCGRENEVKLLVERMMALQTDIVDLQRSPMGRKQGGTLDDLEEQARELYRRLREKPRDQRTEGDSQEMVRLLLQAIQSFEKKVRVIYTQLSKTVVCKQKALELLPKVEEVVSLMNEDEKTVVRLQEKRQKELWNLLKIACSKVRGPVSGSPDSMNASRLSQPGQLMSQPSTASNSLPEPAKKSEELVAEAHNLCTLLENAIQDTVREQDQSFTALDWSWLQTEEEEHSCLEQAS
As to the kind of experiment: Inhibition of human full length IKK beta expressed in baculovirus assessed as substrate phosphorylation using fluorescence-labelled peptides as substrate at 0.2 uM after 90 mins by microfluidic peptide phosphorylation assay.

The target of assay [2] is Casein kinase I isoform alpha (Homo sapiens) (UniProt P48729). As to the kind of experiment: Inhibition of human full length CSNK1A1 expressed in baculovirus assessed as substrate phosphorylation using fluorescence-labelled peptides as substrate at 95 uM after 90 mins by microfluidic peptide phosphorylation assay.
Sequence of Casein kinase I isoform alpha (Homo sapiens) (P48729 2-337 limits assumed): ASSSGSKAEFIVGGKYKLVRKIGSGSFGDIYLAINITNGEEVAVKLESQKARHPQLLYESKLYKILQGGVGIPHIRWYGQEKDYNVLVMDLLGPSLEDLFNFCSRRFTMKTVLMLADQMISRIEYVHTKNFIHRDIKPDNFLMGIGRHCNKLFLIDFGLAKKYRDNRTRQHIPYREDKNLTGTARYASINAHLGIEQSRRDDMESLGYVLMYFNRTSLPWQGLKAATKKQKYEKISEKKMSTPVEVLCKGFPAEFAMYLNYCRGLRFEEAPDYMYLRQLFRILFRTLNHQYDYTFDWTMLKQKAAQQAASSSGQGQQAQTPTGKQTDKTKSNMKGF
In assay [3] the target is Protein kinase C gamma type (Homo sapiens) (UniProt P05129). Put plainly: Inhibition of human truncated PKC gamma expressed in baculovirus assessed as substrate phosphorylation using fluorescence-labelled peptides as substrate at 9 uM after 90 mins by microfluidic peptide phosphorylation assay.
Assay [4] deals with Ribosomal protein S6 kinase alpha-1 (Homo sapiens) (UniProt Q15418). Put plainly: Inhibition of human full length RSK1 expressed in baculovirus assessed as substrate phosphorylation using fluorescence-labelled peptides as substrate at 8 uM after 90 mins by microfluidic peptide phosphorylation assay.
Sequence of Ribosomal protein S6 kinase alpha-1 (Homo sapiens) (Q15418 whole entry): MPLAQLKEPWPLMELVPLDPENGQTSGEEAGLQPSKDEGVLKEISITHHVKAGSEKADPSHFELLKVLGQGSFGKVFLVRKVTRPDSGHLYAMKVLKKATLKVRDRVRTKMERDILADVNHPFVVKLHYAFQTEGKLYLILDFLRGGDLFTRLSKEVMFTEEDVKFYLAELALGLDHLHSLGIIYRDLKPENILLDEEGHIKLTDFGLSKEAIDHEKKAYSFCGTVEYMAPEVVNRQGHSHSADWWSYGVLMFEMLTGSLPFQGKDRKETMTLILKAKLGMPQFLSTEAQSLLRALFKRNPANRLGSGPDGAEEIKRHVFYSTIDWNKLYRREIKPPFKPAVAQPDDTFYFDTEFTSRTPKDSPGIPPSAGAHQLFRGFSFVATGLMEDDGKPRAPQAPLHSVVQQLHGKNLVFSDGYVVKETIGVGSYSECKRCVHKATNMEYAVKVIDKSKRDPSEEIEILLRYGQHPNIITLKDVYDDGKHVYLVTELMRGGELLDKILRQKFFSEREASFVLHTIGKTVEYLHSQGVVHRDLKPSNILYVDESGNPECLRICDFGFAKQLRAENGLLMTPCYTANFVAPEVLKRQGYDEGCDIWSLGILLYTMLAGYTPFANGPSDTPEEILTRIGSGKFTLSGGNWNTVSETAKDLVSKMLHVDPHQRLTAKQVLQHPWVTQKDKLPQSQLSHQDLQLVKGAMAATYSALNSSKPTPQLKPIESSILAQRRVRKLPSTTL
The target in assay [5] is T2, Aurora kinase A (Homo sapiens) (UniProt O14965).
T2 sequence (whole entry): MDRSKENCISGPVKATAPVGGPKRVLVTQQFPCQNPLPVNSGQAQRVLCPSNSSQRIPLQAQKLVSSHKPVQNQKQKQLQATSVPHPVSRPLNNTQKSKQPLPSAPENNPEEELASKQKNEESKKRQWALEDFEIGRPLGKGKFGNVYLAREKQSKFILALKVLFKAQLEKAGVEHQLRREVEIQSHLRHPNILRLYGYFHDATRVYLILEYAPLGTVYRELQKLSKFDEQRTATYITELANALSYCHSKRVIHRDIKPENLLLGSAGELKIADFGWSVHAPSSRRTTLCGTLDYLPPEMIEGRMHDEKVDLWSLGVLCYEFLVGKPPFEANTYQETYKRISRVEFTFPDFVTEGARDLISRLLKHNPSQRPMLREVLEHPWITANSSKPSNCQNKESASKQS
Put plainly: Inhibition of human full length AurA expressed in baculovirus assessed as substrate phosphorylation using fluorescence-labelled peptides as substrate at […] after 90 mins by microfluidic peptide phosphorylation assay.

The target in assay [6] is T3, MAP kinase-activated protein kinase 5 (Homo sapiens) (UniProt Q8IW41).
T3 sequence (whole entry): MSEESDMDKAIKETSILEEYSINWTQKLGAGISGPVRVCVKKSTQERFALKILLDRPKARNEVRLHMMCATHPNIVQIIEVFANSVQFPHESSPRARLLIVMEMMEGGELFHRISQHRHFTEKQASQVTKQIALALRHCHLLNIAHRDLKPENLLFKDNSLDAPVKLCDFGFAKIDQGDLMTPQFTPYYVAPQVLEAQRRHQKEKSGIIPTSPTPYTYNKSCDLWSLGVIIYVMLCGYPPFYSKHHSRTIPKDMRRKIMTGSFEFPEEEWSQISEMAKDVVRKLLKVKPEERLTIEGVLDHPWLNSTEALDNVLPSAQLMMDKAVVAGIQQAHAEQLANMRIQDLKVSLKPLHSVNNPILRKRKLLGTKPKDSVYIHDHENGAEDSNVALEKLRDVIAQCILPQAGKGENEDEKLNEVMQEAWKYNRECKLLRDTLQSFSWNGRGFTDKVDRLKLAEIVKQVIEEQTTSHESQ
Put plainly: Inhibition of human full length PRAK expressed in baculovirus assessed as substrate phosphorylation using fluorescence-labelled peptides as substrate at […] after 90 mins by microfluidic peptide phosphorylation assay.

Assay [7] addresses T4, Mitogen-activated protein kinase 13 (Homo sapiens) (UniProt O15264).
T4 sequence (whole entry): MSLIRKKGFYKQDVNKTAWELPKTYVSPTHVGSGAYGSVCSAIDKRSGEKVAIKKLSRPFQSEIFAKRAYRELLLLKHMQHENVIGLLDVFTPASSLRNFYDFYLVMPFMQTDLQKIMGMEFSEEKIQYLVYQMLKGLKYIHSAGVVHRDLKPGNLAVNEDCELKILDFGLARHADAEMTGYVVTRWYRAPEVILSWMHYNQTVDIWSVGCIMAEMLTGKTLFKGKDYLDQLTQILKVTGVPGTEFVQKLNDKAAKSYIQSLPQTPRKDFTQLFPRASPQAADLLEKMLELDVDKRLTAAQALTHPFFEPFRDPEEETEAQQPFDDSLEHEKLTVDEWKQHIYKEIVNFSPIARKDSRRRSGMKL
Put plainly: Inhibition of human full length p38 delta expressed in Escherichia coli cell assessed as substrate phosphorylation using fluorescence-labelled peptides as substrate at 0.06 uM after 90 mins by microfluidic peptide phosphorylation assay.

Assay [8] concerns the target Proto-oncogene tyrosine-protein kinase Src (Homo sapiens) (UniProt P12931). Put plainly: Inhibition of human full length SRC expressed in baculovirus assessed as substrate phosphorylation using fluorescence-labelled peptides as substrate at 2 uM after 90 mins by microfluidic peptide phosphorylation assay.
The target of assay [9] is Mitogen-activated protein kinase 3 (Homo sapiens) (UniProt P27361). As to the kind of experiment: Inhibition of human full length ERK1 expressed in Escherichia coli cell assessed as substrate phosphorylation using fluorescence-labelled peptides as substrate at 2 uM after 90 mins by microfluidic peptide phosphorylation assay.
Sequence of Mitogen-activated protein kinase 3 (Homo sapiens) (P27361 whole entry): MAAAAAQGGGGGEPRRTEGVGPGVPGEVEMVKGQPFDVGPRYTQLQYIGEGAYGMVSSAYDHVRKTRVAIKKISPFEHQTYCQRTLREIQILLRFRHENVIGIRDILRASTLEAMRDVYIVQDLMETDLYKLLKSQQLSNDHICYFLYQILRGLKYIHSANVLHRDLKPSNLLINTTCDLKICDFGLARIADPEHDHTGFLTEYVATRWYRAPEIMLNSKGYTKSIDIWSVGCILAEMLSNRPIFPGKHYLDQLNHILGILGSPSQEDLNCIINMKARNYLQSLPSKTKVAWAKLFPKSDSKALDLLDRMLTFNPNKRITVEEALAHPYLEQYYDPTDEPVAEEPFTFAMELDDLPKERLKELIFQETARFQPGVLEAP
Assay [10] concerns the target Cyclin-dependent kinase 2 (Homo sapiens) (UniProt P24941). As to the kind of experiment: Inhibition of human full length CDK2 expressed in baculovirus assessed as substrate phosphorylation using fluorescence-labelled peptides as substrate at 2 uM after 90 mins by microfluidic peptide phosphorylation assay.

Sequence of Proto-oncogene tyrosine-protein kinase Src (Homo sapiens) (P12931 2-536 limits assumed): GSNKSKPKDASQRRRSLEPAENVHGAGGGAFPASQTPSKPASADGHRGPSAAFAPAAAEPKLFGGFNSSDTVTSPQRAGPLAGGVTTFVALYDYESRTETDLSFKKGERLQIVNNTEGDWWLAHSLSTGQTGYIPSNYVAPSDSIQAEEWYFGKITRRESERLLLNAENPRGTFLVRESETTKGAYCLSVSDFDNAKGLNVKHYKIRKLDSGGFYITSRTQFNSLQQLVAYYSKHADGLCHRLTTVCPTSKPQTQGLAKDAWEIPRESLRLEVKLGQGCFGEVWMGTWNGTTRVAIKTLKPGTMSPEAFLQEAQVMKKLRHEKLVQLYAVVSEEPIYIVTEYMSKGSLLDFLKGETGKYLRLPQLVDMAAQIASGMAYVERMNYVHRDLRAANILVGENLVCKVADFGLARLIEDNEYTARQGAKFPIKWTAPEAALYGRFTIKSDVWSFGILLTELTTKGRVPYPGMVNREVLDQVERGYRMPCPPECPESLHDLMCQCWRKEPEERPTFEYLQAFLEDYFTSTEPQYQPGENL

For the compound `Clc1ccc(C2(c3ccc(-c4ncnc5[nH]cnc45)cc3)CCNCC2)cc1`, the inhibition in assay [1] was determined as 81%.

For the compound `NCCc1ccc(-c2ncnc3[nH]cnc23)cc1`, the inhibition in assay [2] is 53.5%.

Consider `NCC1CN(c2ncnc3[nH]c4cnccc4c23)CCO1` (stereo not given), for which the inhibition in assay [3] was 34.5%.

On to `NCC1CCN(c2ncnc3[nH]ccc23)CC1`, for which, in [4], the inhibition stood at 11.5%.

Regarding `COC(=O)c1cnc(Nc2cnc(C#N)cn2)cc1NCC1CCNCC1`, the inhibition came out at 6.5% in assay [5] and 4% in assay [6].

With `NC1(Cc2ccc(Cl)cc2)CCN(c2ncnc3[nH]ccc23)CC1`, the inhibition in assay [7] is 0%.

As to `NC1CCN(c2ncnc3[nH]ccc23)CC1`, the values for the inhibition in assay [8], in [9] and in assay [10] were 0%, 1% and 0%, respectively.
